Reference: patent US7638510B2, “Use of s-10-hydroxy-10,11-dihydro-carbamazepine for the treatment of anxiety and bipolar disorders” (Novartis AG, priority 2003, dated 2009)

System: rat
Test: Vogel conflict test (punished drinking)
Format: in vivo
Settings: for PUNISHED DRINKING (number of shocks) mean ± s.e.m.: 3 minute period; for PUNISHED DRINKING % change from control: vs vehicle; for efficacy compared between racemate and enantiomers: 50-200 mg/kg p.o.; for efficacy compared with the positive control clobazam: 50-200 mg/kg p.o. vs clobazam 64 mg/kg
Experimental: a) Description of method: The method, which detects anxiolytic and related other psychiatric activity, follows that described by Vogel et al, Psychopharmacologia 1971; 21:1-7 Anxiolytics and antidepressants (e.g., Fontana et al., Psychopharmacology 1989; 98(2):157-62) of various classes increase punished drinking.
Rats are deprived of water for 48 hours and are then placed individually into a transparent Plexiglas enclosure (15×32×34 cm) with a floor consisting of stainless steel bars (0.4 cm) spaced 1 cm apart The back wall of the enclosure is made of opaque Plexiglass thereby concealing the observer from the experimental animal. In the centre of the opposite wall, 5 cm above the floor, a metal water spout protrudes into the cage and is connected to one pole of a shock generator (Apelex: Type 011346). The other pole of the shock generator is connected to the metal grid floor. The rat is left to explore until it found the water spout. Then, every time it drinks, it receives a slight electric shock (1.7 mA, 1 sec.) 2 seconds after it starts lapping. The number of shocks received (punished drinkings) is counted during a 3 minute period. 15 rats are studied per group. The test is performed blind. Compounds are evaluated at 50, 100 and 200 mg/kg, administered p.o. 60 minutes before the test, and compared with a vehicle control group. Clobazam (64 mg/kg), administered under the same experimental conditions, is used as reference substance. All substances are evaluated within the same experiment and compared with the same vehicle and reference substance controls. Data are analyzed by comparing treated groups with vehicle control using unpaired Student's t tests.

SMILES | PUNISHED DRINKING (number of shocks) mean ± s.e.m. (50 mg/kg p.o. -60 min) | PUNISHED DRINKING % change from control (50 mg/kg p.o. -60 min) | PUNISHED DRINKING (number of shocks) mean ± s.e.m. (100 mg/kg p.o. -60 min) | PUNISHED DRINKING % change from control (100 mg/kg p.o. -60 min) | PUNISHED DRINKING (number of shocks) mean ± s.e.m. (200 mg/kg p.o. -60 min) | PUNISHED DRINKING % change from control (200 mg/kg p.o. -60 min) | efficacy compared between racemate and enantiomers | efficacy compared with the positive control clobazam | PUNISHED DRINKING (number of shocks) mean ± s.e.m. (64 mg/kg p.o. -60 min) | PUNISHED DRINKING % change from control (64 mg/kg p.o. -60 min)
NC(=O)N1c2ccccc2C[C@@H](O)c2ccccc21 [M4, R(−)-10,11-dihydro-10-hydroxy-5H-dibenzo[b,f]azepine-5-carboxamide] | 5.0 ± 0.4 NS number of shocks | +14% | 5.5 ± 0.5 NS number of shocks | +25% | 7.4 ± 1.3 number of shocks | +68% | less efficacious than the S-enantiomer at the lowest dose used | less than that of the positive control | – | –
NC(=O)N1c2ccccc2C[C@H](O)c2ccccc21 [M5, S(+)-10,11-dihydro-10-hydroxy-5H-dibenzo[b,f]azepine-5-carboxamide] | 8.4 ± 1.3 number of shocks | +91% | 9.5 ± 1.0 number of shocks | +116% | 10.5 ± 1.3 number of shocks | +139% | – | surpasses that of clobazam at all doses tested | – | –
CN1C(=O)CC(=O)N(c2ccccc2)c2cc(Cl)ccc21 [CLOBAZAM, Clobazam, reference compound] | – | – | – | – | – | – | – | – | 8.2 ± 1.1 number of shocks | +86%
NC(=O)N1c2ccccc2CC(O)c2ccccc21 (racemic) [M3, 10-hydroxy-10,11-dihydro-carbamazepine] | 5.9 ± 0.5 number of shocks | +34% | 8.4 ± 1.0 number of shocks | +91% | 10.4 ± 1.5 number of shocks | +136% | between that of the R- and S-enantiomers | – | – | –
